The values below come from patent US6977265B2, “Piperidine CCR-3 receptor antagonists” (Roche Palo Alto LLC, priority 2001, dated 2005).

Counter-ions that a name gives are not always drawn.

One data set deals with T1, CCR-3 receptor (Homo sapiens, UniProt P51677).
T1 construct: expressed in transfected cells; host or cells: L1.2 (murine pre-B lymphoma line) stably transfected with CCR-3
T1 sequence (P51677 1-355): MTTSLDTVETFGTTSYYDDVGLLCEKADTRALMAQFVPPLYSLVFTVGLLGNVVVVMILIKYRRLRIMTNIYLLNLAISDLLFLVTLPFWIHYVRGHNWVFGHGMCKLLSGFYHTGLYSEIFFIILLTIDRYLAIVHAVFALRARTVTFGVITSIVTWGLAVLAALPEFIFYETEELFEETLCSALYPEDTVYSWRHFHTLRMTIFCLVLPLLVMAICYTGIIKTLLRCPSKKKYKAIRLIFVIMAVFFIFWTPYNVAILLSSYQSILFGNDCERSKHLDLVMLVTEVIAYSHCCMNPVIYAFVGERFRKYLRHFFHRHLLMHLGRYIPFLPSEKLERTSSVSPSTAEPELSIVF
Description: CCR-3 receptor binding assay, in vitro: inhibition of 125I eotaxin binding to CCR-3 L1.2 transfectant cells. As to conditions: inhibition of binding of 125I-eotaxin to CCR-3 L1.2 transfected cells, 1 hour at room temperature. Here is the method: The CCR-3 antagonistic activity of the compounds of the invention was determined by their ability to inhibit the binding of ^125I eotaxin to CCR-3 L1.2 transfectant cells (see Ponath, P. D. et al., J. Exp. Med., Vol. 183, 2437-2448, (1996)).
The assay was performed in Costar 96-well polypropylene round bottom plates. Test compounds were dissolved in DMSO and then diluted with binding buffer (50 mM HEPES, 1 mM CaCl2, 5 mM MgCl2, 0.5% bovine serum albumin (BSA), 0.02% sodium azide, pH 7.24) such that the final DMSO concentration was 2%. 25 μl of the test solution or only buffer with DMSO (control samples) was added to each well, followed by the addition of 25 μl of ^125I-eotaxin ([…]) (NEX314, New England Nuclear, Boston, Mass.) and 1.5×10^5 of the CCR-3 L1.2 transfected cells in 25 μl binding buffer. The final reaction volume was 75 μl.
After incubating the reaction mixture for 1 hour at room temperature, the reaction was terminated by filtering the reaction mixture through polyethylenimine treated Packard Unifilter GF/C filter plate (Packard, Chicago, Ill.). The filters were washed four times with ice cold wash buffer containing 10 mm HEPES and 0.5M sodium chloride (pH 7.2) and dried at 65° C. for approximately 10 minutes. 25 μl/well of Microscint-20® scintillation fluid (Packard) was added and the radioactivity retained on the filters was determined by using the Packard TopCount®.
The term IC50 denotes the concentration that gives 50% inhibition. The low end stands for inhibition by little substance, the high end for a need for much substance. Compound `O=C(Nc1ccc2ccccc2n1)N[C@@H]1CCC[C@H]1N1CCC(Cc2ccc(Cl)cc2)CC1` (racemic) [Compound 1, (±)-trans-1-{2-[4-(4-chlorobenzyl)piperidin-1-yl]cyclopentyl}-3-quinolin-2-yl-urea] displayed an IC50 of 557 nM. The same measure, in the same setting: under `CC(=O)Nc1cccc(NC(=O)N[C@@H]2CCC[C@H]2N2CCC(Cc3ccc(Cl)cc3)CC2)c1` [Compound 2] stands 18.5 nM. Still for that read-out and setting: under `O=C(Nc1cccc(Cl)c1Cl)N[C@@H]1CCC[C@H]1N1CCC(Cc2ccc(Cl)cc2)CC1` [Compound 3] stands 1140 nM. Same read-out and setting: under `O=C(NCCc1cccs1)N[C@@H]1CCC[C@H]1N1CCC(Cc2ccc(Cl)cc2)CC1` [Compound 4] stands 864 nM; under `O=C(N[C@@H]1CCC[C@H]1N1CCC(Cc2ccc(Cl)cc2)CC1)c1cc2cc(Cl)ccc2[nH]1` [Compound 5], 2690 nM. Compound `CC(=O)c1cccc(C(=O)N[C@@H]2CCC[C@H]2N2CCC(Cc3ccc(Cl)cc3)CC2)c1` [Compound 6] came in with an IC50 of 1860 nM. Still for that read-out and setting: under `COc1cc(CC(=O)N[C@@H]2CCC[C@H]2N2CCC(Cc3ccc(Cl)cc3)CC2)cc(OC)c1OC` [Compound 7] stands 1480 nM; under `O=[N+]([O-])c1ccccc1S(=O)(=O)N[C@@H]1CCC[C@H]1N1CCC(Cc2ccc(Cl)cc2)CC1` [Compound 8], 6090 nM. Still for that read-out and setting: with `O=C(N[C@@H]1CCC[C@H]1N1CCC(Cc2ccc(Cl)cc2)CC1)OCc1ccc([N+](=O)[O-])cc1` [Compound 9] the figure was 5120 nM; with `COc1ccc(NC(=S)N[C@@H]2CCC[C@H]2N2CCC(Cc3ccc(Cl)cc3)CC2)cc1` [Compound 10], 512 nM.

System in the next data set: not given
Test: not given
Details: not given
Usually melting point stands for the temperature of the solid-liquid transition. For `COc1cc(NC(=O)N[C@@H]2CCC[C@@H]2N2CCC(Cc3ccc(Cl)cc3)CC2)cc(OC)c1OC` (racemic) (as salt: hydrochloride), the melting point lay within 117.5 to 122.5 °C. As to `COc1cc(NC(=O)N[C@@H]2CN(C(C)=O)C[C@H]2N2CCC(Cc3ccc(Cl)cc3)CC2)cc(OC)c1OC` (racemic) (as salt: hydrochloride), the melting point is 155 to 161 °C. On the same count and under the same terms, under `COc1cc(NC(=O)N[C@@H]2CCCC[C@@H]2N2CCC(Cc3ccc(Cl)cc3)CC2)cc(OC)c1OC` (racemic) (as salt: hydrochloride) stands 120.1 to 137.3 °C; under `COc1cc(NC(=O)N[C@@H]2CN(S(C)(=O)=O)C[C@H]2N2CCC(Cc3ccc(Cl)cc3)CC2)cc(OC)c1OC` (racemic) (as salt: hydrochloride), 148 to 158 °C; under `COc1cc(NC(=O)N[C@@H]2CN(S(=O)(=O)N(C)C)C[C@H]2N2CCC(Cc3ccc(Cl)cc3)CC2)cc(OC)c1OC` (racemic) (as salt: hydrochloride), 141 to 143 °C.

The compound `COc1cc(NC(=O)N[C@@H]2CN(C(=O)N(C)C)C[C@H]2N2CCC(Cc3ccc(Cl)cc3)CC2)cc(OC)c1OC` (racemic) (as salt: hydrochloride) had a melting point of 142 to 144.5 °C. Consider `COc1cc(NC(=O)N[C@@H]2CN(C(N)=O)C[C@H]2N2CCC(Cc3ccc(Cl)cc3)CC2)cc(OC)c1OC` (racemic) (as salt: hydrochloride), for which the melting point lay in the range of 158 to 162 °C.

Regarding `COC[C@@H]1C[C@@H](N2CCC(Cc3ccc(Cl)cc3)CC2)[C@H](NC(=O)Nc2cc(OC)c(OC)c(OC)c2)C1` (racemic) (as salt: hydrochloride), the melting point lay within 109 to 112 °C. On the same count and under the same terms, with `COc1cc(NC(=O)N[C@@H]2C[C@H](OC)C[C@H]2N2CCC(Cc3ccc(Cl)cc3)CC2)cc(OC)c1OC` (racemic) (as salt: hydrochloride) the figure was 112.5 to 119.5 °C; with `COc1cc(NC(=O)N[C@@H]2CN(CC(N)=O)C[C@H]2N2CCC(Cc3ccc(Cl)cc3)CC2)cc(OC)c1OC` (racemic) (as salt: hydrochloride), 160 to 165 °C. On to `COc1cc(NC(=O)N[C@@H]2CN(CCS(C)(=O)=O)C[C@H]2N2CCC(Cc3ccc(Cl)cc3)CC2)cc(OC)c1OC` (racemic) (as salt: hydrochloride), for which the melting point fell in the range of 210.2 to 211.8 °C.

Compound `COc1cc(CCNC(=O)N[C@@H]2CCC[C@H]2N2CCC(Cc3ccc(Cl)cc3)CC2)cc(OC)c1OC` (racemic) (as salt: hydrochloride) registered a melting point of 90.3 to 95 °C. `COc1cc(NC(=O)N[C@@H]2CN(S(N)(=O)=O)C[C@H]2N2CCC(Cc3ccc(Cl)cc3)CC2)cc(OC)c1OC` (racemic) (as salt: hydrochloride) came in with a melting point of 155.7 to 160 °C.

On to `CS(=O)(=O)c1ccc(C(=O)N[C@@H]2CC[C@H]2N2CCC(Cc3ccc(Cl)cc3)CC2)cc1` (racemic) (as salt: hydrochloride), for which the melting point was 173.2 to 184.1 °C. The same measure, in the same setting: with `COc1cc(NC(=O)N[C@@H]2CC[C@H]2N2CCC(Cc3ccc(Cl)cc3)CC2)cc(OC)c1OC` (racemic) (as salt: hydrochloride) the figure was 127.4 to 128.2 °C. The same measure, in the same setting: with `CS(=O)(=O)c1cccc(NC(=O)N[C@@H]2CCCC[C@H]2N2CCC(Cc3ccc(Cl)cc3)CC2)c1` (racemic) (as salt: hydrochloride) the figure was 150.2 to 151.6 °C. On the same count and under the same terms, under `COc1cc(NC(=O)N[C@@H]2CC[C@@H]2N2CCC(Cc3ccc(Cl)cc3)CC2)cc(OC)c1OC` (racemic) (as salt: hydrochloride) stands 123.7 to 127.9 °C; under `COc1cc(NC(=O)N[C@@H]2CCC[C@H]2N2CCC(Cc3ccc(Cl)cc3)CC2)cc(OC)c1OC` (racemic) (as salt: hydrochloride), 136.1 to 138 °C; under `COc1cc(NC(=O)N[C@@H]2COC[C@H]2N2CCC(Cc3ccc(Cl)cc3)CC2)cc(OC)c1OC` (racemic) (as salt: hydrochloride), 229.2 to 230.9 °C.

Take `COc1cc(NC(=O)N[C@@H]2C[C@H](O)C[C@H]2N2CCC(Cc3ccc(Cl)cc3)CC2)cc(OC)c1OC` (racemic) (as salt: hydrochloride): the melting point was 137 to 143 °C. `COc1cc(NC(=O)N[C@@H]2C[C@H](CO)C[C@H]2N2CCC(Cc3ccc(Cl)cc3)CC2)cc(OC)c1OC` (racemic) (as salt: hydrochloride) yielded a melting point of 138 to 143 °C. Same read-out and setting: under `COc1cc(NC(=O)N[C@@H]2CNC[C@H]2N2CCC(Cc3ccc(Cl)cc3)CC2)cc(OC)c1OC` (racemic) (as salt: hydrochloride) [Example 9, (±)-trans-1-{4-[4-(4-chlorobenzyl)piperidin-1-yl]-pyrrolidin-3-yl}-3-(3,4,5-trimethoxyphenyl)urea dihydrochloride] stands 157 to 170 °C; under `CS(=O)(=O)c1ccc(C(=O)N[C@@H]2CCC[C@@H]2N2CCC(Cc3ccc(Cl)cc3)CC2)cc1` (racemic) (as salt: hydrochloride) [Example 11, (±)-cis-N-{2-[4-(4-chlorobenzyl)piperidin-1-yl]-cyclopentyl}-4-methanesulfonyl-benzamide hydrochloride], 125.3 to 131.9 °C. Still for that read-out and setting: under `CS(=O)(=O)c1ccc(C(=O)N[C@@H]2CCCC[C@@H]2N2CCC(Cc3ccc(Cl)cc3)CC2)cc1` (racemic) (as salt: hydrochloride) [Example 14, (±)-cis-N-{2-[4-(4-chlorobenzyl)piperidin-1-yl]-cyclohexyl}-4-methanesulfonyl-benzamide hydrochloride] stands 123.7 to 149.4 °C; under `COc1cc(NC(=O)N[C@@H]2CCCC[C@H]2N2CCC(Cc3ccc(Cl)cc3)CC2)cc(OC)c1OC` (racemic) [Example 1, (±)-trans-1-{2-[4-(4-chlorobenzyl)piperidin-1-yl]-cyclohexyl}-3-(3,4,5-trimethoxyphenyl)urea], 196.9 to 200 °C.

As for `COc1cc(NC(=O)N[C@@H]2C[C@H](O)C[C@H]2N2CCC(Cc3ccc(Cl)cc3)CC2)cc(OC)c1OC` (racemic) [Example 6, (±)-1-{(1R,2R,4S)-2-[4-(4-chlorobenzyl)piperidin-1-yl]-4-hydroxy-cyclopentyl}-3-(3,4,5-trimethoxyphenyl)urea], the melting point lay within 98.7 to 102 °C. As to `COc1cc(NC(=O)N[C@@H]2CCC[C@H]2N2CCC(Cc3ccc(Cl)cc3)CC2)cc2ccccc12` (racemic) [Example 22, (±)-trans-1-{2-[4-(4-chlorobenzyl)piperidin-1-yl]-cyclopentyl}-3-(4-methoxy-naphthalen-2-yl)urea], the melting point lay within 175 to 190 °C.
